Measured values published in patent US20260258351A1, “METHOD FOR DIFFERENTIATING VISCERAL SENSORY NEURONS FROM HUMAN INDUCED PLURIPOTENT STEM CELLS” (SEOUL NATIONAL UNIVERSITY R&DB FOUNDATION, priority 2022, published 2026).

System: induced-Visceral sensory neurons (i-VSN)
Assay: Live cell calcium imaging of induced-Visceral sensory neurons after compound treatment
Assay type: cell-based, human
Conditions: real-time calcium imaging, FLIPR Calcium 6 Assay Kit, FIGS. 7a-7f
Method: For Live cell calcium imaging, the FLIPR Calcium 6 Assay Kit ([…], Molecular Devices) was used. The overall steps were performed according to the manufacturer's protocol. The test solution, in which components A and B were mixed, was incubated in an incubator at 37° C. for 2 hours, and during this process, the carbon dioxide concentration was maintained at 5%. Then, after treatment with a fluorescent substance, the fluorescence signal was detected for 5 minutes using an EVOS live imaging system (Thermo-Fisher) capable of maintaining a temperature of 37° C., a 5% carbon dioxide concentration, and 80% humidity. The detected signals were obtained by video or continuous snapshots (once per second). In order to confirm the functional aspect of the induced Visceral sensory neurons, the changes in the activity of the neurons were measured using a real-time calcium imaging technique after treating the Visceral sensory neurons with various compounds known to stimulate the same. A total of three compounds (i.e., liraglutide, CCK-8, and capsaicin) were used. Liraglutide corresponds to an agonist of GLP1R and is known to activate the nodose ganglion. […] CCK-8 is an agonist of the CCK receptor and is known to be able to stimulate the nodose ganglion as well. […] Capsaicin is a compound that has excitotoxicity toward TRPV1 and is known to detect pain and heat sensations in the nodose ganglion. […]

Row | Compound | change in neuron activity (calcium signal) after treatment
1 | COc1cc(CNC(=O)CCCC/C=C/C(C)C)ccc1O [Capsaicin] | induced the activity
2 | CCK-8 | calcium signal was amplified
